Measurements: patent publication US8871753B2, “Macrocyclic compounds and their use as kinase inhibitors” (Incyte Corporation, priority 2008, dated 2014)
Counter-ions that a name gives are not always drawn. Like-named read-outs stand apart in the source and are kept apart here. Blank lines part the entries; values can stand above or below the compound they belong to.

Key:
Type in all cases: biochemical
[1] = molecular target: T1, human JAK2 (a.a. 828-1132) (Homo sapiens, UniProt O60674); test: In vitro JAK kinase assay (HTRF, phosphorylation of a biotinylated peptide), JAK2
T1 construct: JAK2 (a.a. 828-1132); His tag (N); made in house; host or cells: insect cells (baculovirus)
Summary of the method: (§1)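 Phosphorylation of a biotinylated peptide by the JAK kinase domain, detected by HTRF with Eu-Py20 and SA-APC. ATP was 90 μM for JAK1, 30 μM for JAK2 and 3 μM for JAK3. Reactions ran 1 h at room temperature and were stopped with EDTA, followed by 40 min antibody binding.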

[2] = molecular target: T2, human JAK1 (a.a. 837-1142) (Homo sapiens, UniProt P23458); test: In vitro JAK kinase assay (HTRF, phosphorylation of a biotinylated peptide), JAK1; conditions: read-out: JAK1 IC50
T2 construct: human JAK1 (a.a. 837-1142); His tag (N); made in house; host or cells: insect cells (baculovirus)
Summary of the method: as §1

TYK2 = TYK2 (Homo sapiens, UniProt P29597); test: TYK2 kinase inhibition (Table A1)
[3] = molecular target: T3, human JAK3 (a.a. 781-1124) (Homo sapiens, UniProt P52333); test: In vitro JAK kinase assay (HTRF, phosphorylation of a biotinylated peptide), JAK3
T3 construct: JAK3 (a.a. 781-1124); His tag (N); made in house; host or cells: insect cells (baculovirus)
Summary of the method: as §1

[4] = molecular target: T4, Recombinant Human Anaplastic Lymphoma Kinase (Homo sapiens, UniProt Q9UM73); test: ALK HTRF kinase assay
T4 construct: purchased Invitrogen, Carlsbad, Calif
Summary of the method: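 TR-FRET read-out (Eu anti-pTyr antibody + streptavidin-APC) of biotin-peptide phosphorylation by recombinant human enzyme; IC50 by sigmoidal fit with top/bottom baselines and Hill slope.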

[5] = compound at a concentration of 500 nM or 1 mM (not specified), cells shown as percentage
[6] = percentage inhibition of the example compound at a concentration of 500 nM or 1 mM (not specified which)
[7] = method AA1 (30 μM ATP) or AA2 (1000 μM ATP), not stated per value
[8] = method AA1 (90 μM ATP) or AA2 (1000 μM ATP), not stated per value
[9] = method AA1 (3 μM ATP) or AA2 (1000 μM ATP), not stated per value
[10] = compound at 500 nM or 1 mM, 90 μM ATP

T3 sequence (P52333 781-1124): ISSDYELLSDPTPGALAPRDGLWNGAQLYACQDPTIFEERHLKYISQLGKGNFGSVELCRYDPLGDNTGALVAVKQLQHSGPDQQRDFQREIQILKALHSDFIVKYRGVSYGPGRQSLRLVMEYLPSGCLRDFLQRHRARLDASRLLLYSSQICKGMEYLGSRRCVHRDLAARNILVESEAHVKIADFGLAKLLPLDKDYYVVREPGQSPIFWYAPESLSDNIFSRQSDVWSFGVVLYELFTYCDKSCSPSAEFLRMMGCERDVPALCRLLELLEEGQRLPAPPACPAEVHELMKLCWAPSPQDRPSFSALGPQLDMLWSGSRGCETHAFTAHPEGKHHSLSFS
T2 sequence (P23458 849-1154): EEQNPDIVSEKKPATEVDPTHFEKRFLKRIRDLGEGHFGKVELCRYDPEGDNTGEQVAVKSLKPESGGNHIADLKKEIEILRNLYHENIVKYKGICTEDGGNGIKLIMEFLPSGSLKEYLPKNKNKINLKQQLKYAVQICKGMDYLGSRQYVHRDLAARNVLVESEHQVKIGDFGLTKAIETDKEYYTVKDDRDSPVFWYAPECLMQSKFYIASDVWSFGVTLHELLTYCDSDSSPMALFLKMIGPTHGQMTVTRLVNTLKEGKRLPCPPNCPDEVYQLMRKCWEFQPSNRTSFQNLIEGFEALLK
T4 sequence (Q9UM73 19-1620): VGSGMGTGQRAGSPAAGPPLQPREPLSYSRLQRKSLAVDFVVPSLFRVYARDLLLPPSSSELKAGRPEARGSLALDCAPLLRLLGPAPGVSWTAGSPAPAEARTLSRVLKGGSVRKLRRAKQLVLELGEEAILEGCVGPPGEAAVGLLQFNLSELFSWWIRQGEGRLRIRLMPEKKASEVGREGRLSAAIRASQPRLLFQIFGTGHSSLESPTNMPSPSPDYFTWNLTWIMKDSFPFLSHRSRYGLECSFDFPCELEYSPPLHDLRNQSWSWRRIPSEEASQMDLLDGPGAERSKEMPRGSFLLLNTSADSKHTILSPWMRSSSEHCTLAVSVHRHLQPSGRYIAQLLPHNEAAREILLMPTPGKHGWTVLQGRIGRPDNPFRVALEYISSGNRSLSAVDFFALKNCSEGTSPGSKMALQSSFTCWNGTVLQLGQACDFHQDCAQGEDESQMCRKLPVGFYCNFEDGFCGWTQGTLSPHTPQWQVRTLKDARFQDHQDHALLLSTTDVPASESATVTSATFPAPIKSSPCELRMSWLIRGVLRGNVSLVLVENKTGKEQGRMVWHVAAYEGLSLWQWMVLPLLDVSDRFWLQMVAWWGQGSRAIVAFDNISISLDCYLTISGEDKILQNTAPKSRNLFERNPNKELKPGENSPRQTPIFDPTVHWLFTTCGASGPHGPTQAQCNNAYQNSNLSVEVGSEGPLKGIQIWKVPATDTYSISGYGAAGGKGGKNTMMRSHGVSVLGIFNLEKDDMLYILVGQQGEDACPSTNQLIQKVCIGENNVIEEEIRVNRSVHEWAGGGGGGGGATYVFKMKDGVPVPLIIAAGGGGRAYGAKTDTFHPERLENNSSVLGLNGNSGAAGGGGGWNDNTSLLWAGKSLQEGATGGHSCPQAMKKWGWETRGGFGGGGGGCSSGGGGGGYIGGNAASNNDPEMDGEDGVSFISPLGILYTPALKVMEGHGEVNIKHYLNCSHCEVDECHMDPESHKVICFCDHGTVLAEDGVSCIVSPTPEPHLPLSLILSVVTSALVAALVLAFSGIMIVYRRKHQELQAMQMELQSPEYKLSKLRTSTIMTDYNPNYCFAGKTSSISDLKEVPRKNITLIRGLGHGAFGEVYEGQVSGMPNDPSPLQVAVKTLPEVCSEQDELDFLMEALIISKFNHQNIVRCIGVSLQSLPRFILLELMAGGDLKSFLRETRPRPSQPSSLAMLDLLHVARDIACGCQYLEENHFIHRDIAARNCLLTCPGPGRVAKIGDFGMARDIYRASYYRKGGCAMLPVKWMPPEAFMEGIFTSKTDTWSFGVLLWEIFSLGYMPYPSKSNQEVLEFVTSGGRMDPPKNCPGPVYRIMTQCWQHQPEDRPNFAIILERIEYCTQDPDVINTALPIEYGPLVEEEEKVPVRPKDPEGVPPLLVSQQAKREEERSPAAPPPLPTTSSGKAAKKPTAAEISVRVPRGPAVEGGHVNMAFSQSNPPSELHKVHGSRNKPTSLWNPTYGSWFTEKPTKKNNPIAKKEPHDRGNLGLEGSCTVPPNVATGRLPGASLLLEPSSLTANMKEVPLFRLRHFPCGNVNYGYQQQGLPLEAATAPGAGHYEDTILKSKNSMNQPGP
T1 sequence (O60674 828-1132): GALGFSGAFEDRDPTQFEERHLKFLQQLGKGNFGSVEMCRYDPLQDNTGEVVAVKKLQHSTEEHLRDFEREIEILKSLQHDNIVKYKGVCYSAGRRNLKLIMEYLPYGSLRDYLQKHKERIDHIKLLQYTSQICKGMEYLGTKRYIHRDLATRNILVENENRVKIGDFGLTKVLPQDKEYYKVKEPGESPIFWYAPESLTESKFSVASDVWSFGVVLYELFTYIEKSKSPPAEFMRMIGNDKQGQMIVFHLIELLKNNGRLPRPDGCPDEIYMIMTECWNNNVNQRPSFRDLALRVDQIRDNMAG
Sequence of TYK2 (P29597 whole entry): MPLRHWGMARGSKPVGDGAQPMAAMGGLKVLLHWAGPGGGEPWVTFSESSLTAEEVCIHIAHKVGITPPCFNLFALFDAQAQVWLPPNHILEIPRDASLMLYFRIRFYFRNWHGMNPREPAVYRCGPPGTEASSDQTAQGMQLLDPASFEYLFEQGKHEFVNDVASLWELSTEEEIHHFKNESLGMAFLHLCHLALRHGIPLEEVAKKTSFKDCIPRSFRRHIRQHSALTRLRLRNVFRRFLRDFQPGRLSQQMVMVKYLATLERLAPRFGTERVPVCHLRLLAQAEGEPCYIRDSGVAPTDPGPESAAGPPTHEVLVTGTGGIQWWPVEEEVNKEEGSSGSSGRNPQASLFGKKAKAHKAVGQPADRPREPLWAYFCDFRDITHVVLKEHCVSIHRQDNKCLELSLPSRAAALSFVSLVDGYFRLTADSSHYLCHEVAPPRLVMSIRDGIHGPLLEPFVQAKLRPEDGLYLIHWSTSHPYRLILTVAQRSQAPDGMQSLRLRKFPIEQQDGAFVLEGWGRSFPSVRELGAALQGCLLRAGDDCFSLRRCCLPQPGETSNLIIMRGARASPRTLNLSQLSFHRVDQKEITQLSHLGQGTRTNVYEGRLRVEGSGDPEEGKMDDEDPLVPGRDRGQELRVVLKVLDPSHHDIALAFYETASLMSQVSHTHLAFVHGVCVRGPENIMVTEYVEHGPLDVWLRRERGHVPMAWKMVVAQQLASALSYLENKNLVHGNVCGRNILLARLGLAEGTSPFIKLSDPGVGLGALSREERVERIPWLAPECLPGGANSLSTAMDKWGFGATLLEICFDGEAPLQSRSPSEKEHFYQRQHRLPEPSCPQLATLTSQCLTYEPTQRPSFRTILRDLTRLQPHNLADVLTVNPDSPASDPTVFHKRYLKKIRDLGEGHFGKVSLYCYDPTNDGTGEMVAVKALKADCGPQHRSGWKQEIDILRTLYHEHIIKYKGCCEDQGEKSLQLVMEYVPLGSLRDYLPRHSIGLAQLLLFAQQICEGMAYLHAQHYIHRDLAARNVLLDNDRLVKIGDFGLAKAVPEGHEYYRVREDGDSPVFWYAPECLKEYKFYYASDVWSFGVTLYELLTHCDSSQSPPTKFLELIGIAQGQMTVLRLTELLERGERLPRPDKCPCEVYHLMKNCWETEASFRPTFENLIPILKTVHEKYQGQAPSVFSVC

Structure (SMILES): O=C(Nc1ccc2cc1CCc1cccc(c1)Nc1ncc(Cl)c(n1)N2)N[C@@H]1CCNC1 [Example B175, N-[6-Chloro-2,4,8,22-tetraazatetracyclo[14.3.1.1(3,7).1(9,13)]docosa-1(20),3(22),4,6,9(21),10,12,16,18-nonaen-12-yl]-N′-[(3R)-pyrrolidin-3-yl]urea dihydrochloride]
IC50 ([1]; Table B1): 18 nM
IC50 ([2]; Table B1): 9 nM
IC50 (TYK2; Table B1): 31 nM
IC50 ([3]; Table B1): 69 nM
ALK % of inhibition at a concentration of 500 nM or 1 mM [4, 5]: 18%

Structure (SMILES): Clc1cnc2nc1Nc1ccc(Nc3nccc(-c4ccccc4)n3)c(c1)CCc1cccc(c1)N2 [Example B279, 6-Chloro-N-(4-phenylpyrimidin-2-yl)-2,4,8,22-tetraazatetracyclo[14.3.1.1(3,7).1(9,13)]docosa-1(20),3(22),4,6,9(21),10,12,16,18-nonaen-12-amine tris(trifluoroacetate)]
IC50 ([1]; Table B1): 158 nM
IC50 ([2]; Table B1): 86 nM
IC50 (TYK2; Table B1): 549 nM
IC50 ([3]; Table B1): > 10000 nM
ALK % of inhibition at a concentration of 500 nM or 1 mM [4, 5]: 0.76%

Structure (SMILES): O=C(Nc1ccc2cc1CCc1cncc(c1)Nc1ncc(Cl)c(n1)N2)N1CCN(c2ccccn2)CC1 [Example B289, N-[6-Chloro-2,4,8,18,22-pentaazatetracyclo[14.3.1.1(3,7).1(9,13)]docosa-1(20),3(22),4,6,9(21),10,12,16,18-nonaen-12-yl]-4-pyridin-2-ylpiperazine-1-carboxamide tris(trifluoroacetate)]
IC50 ([1]; Table B1): 134 nM
IC50 ([2]; Table B1): 17 nM
IC50 (TYK2; Table B1): 85 nM
IC50 ([3]; Table B1): > 200 nM
ALK % of inhibition at a concentration of 500 nM or 1 mM [4, 5]: 65%

Structure (SMILES): CC(C)(C)OC(=O)NCCNC(=O)Nc1ccc2cc1CCc1cccc(c1)Nc1ncc(Cl)c(n1)N2 [Example B185, tert-Butyl {2-[({[6-chloro-2,4,8,22-tetraazatetracyclo[14.3.1.1(3,7).1(9,13)]docosa-1(20),3(22),4,6,9(21),10,12,16,18-nonaen-12-yl]amino}carbonyl)amino]ethyl}carbamate]
IC50 ([1]; Table B1): 3.9 nM
IC50 ([2]; Table B1): 0.62 nM
IC50 (TYK2; Table B1): 4 nM
IC50 ([3]; Table B1): 46 nM
ALK % of inhibition at a concentration of 500 nM or 1 mM [4, 5]: 12%

Structure (SMILES): CC1(C)Cc2cccc(NC(=O)Nc3ccc4cc3CCc3cccc(c3)Nc3ncc(Cl)c(n3)N4)c2O1 [Example B129, N-[6-Chloro-2,4,8,22-tetraazatetracyclo[14.3.1.1(3,7).1(9,13)]docosa-1(20),3(22),4,6,9(21),10,12,16,18-nonaen-12-yl]-N′-(2,2-dimethyl-2,3-dihydro-1-benzofuran-7-yl)urea trifluoroacetate]
IC50 ([1]; Table B1): 9.5 nM
IC50 ([2]; Table B1): 3.7 nM
IC50 (TYK2; Table B1): 32 nM
IC50 ([3]; Table B1): 184 nM
ALK % of inhibition at a concentration of 500 nM or 1 mM [4, 5]: 7.3%

Structure (SMILES): O=C(CC1CCN(C(=O)c2nc[nH]n2)CC1)Nc1ccc2cc1CCc1cncc(c1)Nc1ncc(Cl)c(n1)N2 [Example A136, N-[6-Chloro-2,4,8,18,22-pentaazatetracyclo[14.3.1.1(3,7).1(9,13)]docosa-1(20),3(22),4,6,9(21),10,12,16,18-nonaen-12-yl]-2-[1-(1H-1,2,4-triazol-3-ylcarbonyl)piperidin-4-yl]acetamide bis(trifluoroacetate)]
IC50 [1, 7]: 2.4 nM
IC50 [2, 8]: 0.4 nM
IC50 (TYK2): 2.1 nM
IC50 [3, 9]: 57 nM
ALK % of inhibition at a concentration of 500 nM or 1 mM [4, 10]: 38%

Structure (SMILES): N#Cc1ccc(S(=O)(=O)N2CCC(CC(=O)Nc3ccc4cc3CCc3cccc(c3)Nc3ncc(Cl)c(n3)N4)CC2)cc1 [Example A209, N-[6-Chloro-2,4,8,22-tetraazatetracyclo[14.3.1.1(3,7).1(9,13)]docosa-1(20),3(22),4,6,9(21),10,12,16,18-nonaen-12-yl]-2-{1-[(4-cyanophenyl)sulfonyl]piperidin-4-yl}acetamide trifluoroacetate]
IC50 [1, 7]: 120 nM
IC50 [2, 8]: 60 nM
IC50 (TYK2): > 200 nM
IC50 [3, 9]: > 200 nM
ALK % of inhibition at a concentration of 500 nM or 1 mM [4, 10]: 19%

Structure (SMILES): NS(=O)(=O)Nc1ccc2cc1CCc1cccc(c1)Nc1ncc(Cl)c(n1)N2 [Example B184, N-[6-Chloro-2,4,8,22-tetraazatetracyclo[14.3.1.1(3,7).1(9,13)]docosa-1(20),3(22),4,6,9(21),10,12,16,18-nonaen-12-yl]sulfamide trifluoroacetate]
IC50 ([1]; Table B1): 0.1 nM
IC50 ([2]; Table B1): 0.1 nM
IC50 (TYK2; Table B1): 0.14 nM
IC50 ([3]; Table B1): 0.1 nM
ALK % of inhibition at a concentration of 500 nM or 1 mM [4, 5]: 82%

Structure (SMILES): CC(C)c1ccccc1NC(=O)Nc1ccc2cc1CCc1cccc(c1)Nc1ncc(Cl)c(n1)N2 [Example B104, N-[6-Chloro-2,4,8,22-tetraazatetracyclo[14.3.1.1(3,7).1(9,13)]docosa-1(20), 3(22),4,6,9(21),10,12,16,18-nonaen-12-yl]-N′-(2-isopropylphenyl)urea trifluoroacetate]
IC50 ([1]; Table B1): 11 nM
IC50 ([2]; Table B1): 4.9 nM
IC50 (TYK2; Table B1): 26 nM
IC50 ([3]; Table B1): 81 nM
ALK % of inhibition at a concentration of 500 nM or 1 mM [4, 5]: 55%

Structure (SMILES): O=C(NCc1ccncc1)Nc1ccc2cc1CCc1cccc(c1)Nc1ncc(Cl)c(n1)N2 [Example B246, N-[6-Chloro-2,4,8,22-tetraazatetracyclo[14.3.1.1(3,7).1(9,13)]docosa-1(20),3(22),4,6,9(21),10,12,16,18-nonaen-12-yl]-N′-(pyridin-4-ylmethyl)ureabis(trifluoroacetate)]
IC50 ([1]; Table B1): 25 nM
IC50 ([2]; Table B1): 12 nM
IC50 (TYK2; Table B1): 3.4 nM
IC50 ([3]; Table B1): 21 nM
ALK % of inhibition at a concentration of 500 nM or 1 mM [4, 5]: 23%

Continued, values first:

IC50 ([1]; Table D1): 2.1 nM
IC50 ([2]; Table D1): 2.2 nM
IC50 (TYK2; Table D1): 4 nM
IC50 ([3]; Table D1): 20 nM
IC50 ([4]; Table D1, 90 μM ATP): 730 nM
Structure (SMILES): O=C(Nc1ccccc1)N1CCN(c2ccc(-c3cc4cc(c3)Nc3ncc(Cl)c(n3)Nc3cccc(c3)OCC4)cn2)CC1 [Example D42, 4-{5-[6-Chloro-14-oxa-2,4,8,23-tetraazatetracyclo[15.3.1.1(3,7).1(9,13)]tricosa-1(21),3(23),4,6,9(22),10,12,17,19-nonaen-19-yl]pyridin-2-yl}-N-phenylpiperazine-1-carboxamide bis(trifluoroacetate)]

IC50 [1]: > 1000 nM
IC50 [2]: > 1000 nM
IC50 (TYK2): > 1000 nM
IC50 [3]: > 1000 nM
IC50 [4]: > 10000 nM
Structure (SMILES): O=C1Cc2cccc(c2)Nc2nc(ncc2Cl)Nc2cccc(c2)N1 [Example C11, 6-Chloro-2,4,8,16,23-pentaazatetracyclo[15.3.1.1(3,7).1(9,13)]tricosa-1(21),3(23),4,6,9(22),10,12,17,19-nonaen-15-one trifluoroacetate]

IC50 ([1]; Table B1): 1.8 nM
IC50 ([2]; Table B1): 2 nM
IC50 (TYK2; Table B1): 5 nM
IC50 ([3]; Table B1): 4.2 nM
ALK % of inhibition at a concentration of 500 nM or 1 mM [4, 6]: 19%
Structure (SMILES): O=C(NCCNS(=O)(=O)C1CC1)Nc1ccc2cc1CCc1cccc(c1)Nc1ncc(Cl)c(n1)N2 [Example B327, N-{2-[({[6-Chloro-2,4,8,22-tetraazatetracyclo[14.3.1.1(3,7).1(9,13)]docosa-1(20),3(22),4,6,9(21),10,12,16,18-nonaen-12-yl]amino}carbonyl)amino]ethyl}cyclopropanesulfonamide trifluoroacetate]

IC50 ([1]; Table D1): 2.3 nM
IC50 ([2]; Table D1): 11 nM
IC50 (TYK2; Table D1): 7.4 nM
IC50 ([3]; Table D1): 21 nM
IC50 ([4]; Table D1, 90 μM ATP): 430 nM
Structure (SMILES): O=C(Nc1cc2cc(c1)OCCSc1cccc(c1)Nc1nc(ncc1Cl)N2)c1ccccc1 [Example D57, N-[6-Chloro-17-oxa-14-thia-2,4,8,24-tetraazatetracyclo[16.3.1.1(3,7).1(9,13)]tetracosa-1(22),3(24),4,6,9(23),10,12,18,20-nonaen-20-yl]benzamide trifluoroacetate]

IC50 ([1]; Table B1): 91 nM
IC50 ([2]; Table B1): 13 nM
IC50 (TYK2; Table B1): > 400 nM
IC50 ([3]; Table B1): > 400 nM
ALK % of inhibition at a concentration of 500 nM or 1 mM [4, 6]: 38%
Structure (SMILES): CC(=O)N1CCC(CN(C)Cc2ccc3cc2CCc2cncc(c2)Nc2ncc(Cl)c(n2)N3)CC1 [Example B346, 1-(1-Acetylpiperidin-4-yl)-N-{[6-chloro-2,4,8,18,22-pentaazatetracyclo[14.3.1.1(3,7).1(9,13)]docosa-1(20),3(22),4,6,9(21),10,12,16,18-nonaen-12-yl]methyl}-N-methylmethanamine tris(trifluoroacetate)]

IC50 ([1]; Table B1): 371 nM
IC50 ([2]; Table B1): 75 nM
IC50 (TYK2; Table B1): > 400 nM
IC50 ([3]; Table B1): > 400 nM
ALK % of inhibition at a concentration of 500 nM or 1 mM [4, 6]: 36%
Structure (SMILES): O=C(Nc1ccc2cc1CCc1cncc(c1)Nc1ncc(Cl)c(n1)N2)N1CCC(S(=O)(=O)c2ccccc2)C1 (centres unmarked) [Example B321, N-[6-Chloro-2,4,8,18,22-pentaazatetracyclo[14.3.1.1(3,7).1(9,13)]docosa-1(20),3(22),4,6,9(21),10,12,16,18-nonaen-12-yl]-3-(phenylsulfonyl)pyrrolidine-1-carboxamide bis(trifluoroacetate)]
